Test results as given in US20110144323A1, “AMORPHOUS AND CRYSTALLINE FORMS OF SMILAGENIN AND ITS HYDRATES” (PHYTOPHARM PLC, priority 2004, published 2011).

Test: Vapour sorption studies
Assay type: physicochemical
Excerpt: As is well known, a channel hydrate is a hydrate in which the crystal lattice of the molecule forms a channel or cage enclosing a void which can wholly or partially accommodate water (or solvent) molecules. The stoichiometric (molar) ratio of smilagenin:water at any particular time will depend on such factors as the humidity of the surrounding atmosphere, as the water molecules are generally free to enter or leave the void.

## C[C@@H]1CC[C@@]2(OC1)O[C@H]1C[C@H]3[C@@H]4CC[C@@H]5C[C@@H](O)CC[C@]5(C)[C@H]4CC[C@]3(C)[C@H]1[C@@H]2C [Crystalline Form VI, smilagenin]
FIG. 11
  hygroscopicity in vapour sorption study: hygroscopic
At high humidity, i.e. a dihydrate
  water adsorbed, molar equivalents: about 2 mol. eq. water
At high humidity, water reversibly lost at low humidity (FIG. 11)
  water adsorbed in vapour sorption study: up to 9 % water
